Tests used:
Test in all cases: Example 2: alcohol ethoxylate adjuvants without glyphosate, visual % damage, tracksprayer 300 l/ha
Format in all cases: in vivo
Poa annua = tested on: Poa annua
Description: (§1) The effect of different types of alcohol ethoxylate (branched—Genapol X-series, and unbranched—Genapol O-series, differing degrees of ethoxylation, see Table 3 below for more details), on unwanted vegetation (broadleaf weed and grass species), in the absence of glyphosate, was investigated and compared to untreated (water only) control weeds.
(§2) Troughs (measuring 16 cm by 13 cm by 5 cm) were filled with local field soil. Seeds of Veronica persica, Stellaria media, Trifolium repens and Poa annua were sown 24 days before application of test samples. Plants were grown in the glasshouse at 18 to 20° C. and 60% relative humidity. Application of alcohol ethoxylate test samples was carried out using a tracksprayer, spraying at a rate of 300 l/ha. Plants were kept in glasshouse and visual assessment of the estimated percentage damage to the plant was carried out 1, 7, and 14 days from application.
(§3) Damage was assessed as wilting, desiccation or any other kind of visual injury in comparison to the untreated control (water only).

Veronica persica = tested on: Veronica persica
Description: as §1, §2, §3

Trifolium repens = tested on: Trifolium repens
Description: as §1, §2, §3

Stellaria media = tested on: Stellaria media
Description: as §1, §2, §3

Substance: Iso-tridecyl alcohol polyglycol ether with 2 moles of ethoxylation [GenapolX020]
- mean % damage 1 daa Poa annua (Poa annua; adjuvant 1% w/v): 0%
- mean % damage 7 daa Poa annua (Poa annua; adjuvant 1% w/v): 0%
- mean % damage 14 daa Poa annua (Poa annua; adjuvant 1% w/v): 0%
- mean % damage 1 daa Poa annua (Poa annua; adjuvant 1.5% w/v): 0%
- mean % damage 7 daa Poa annua (Poa annua; adjuvant 1.5% w/v): 5%
- mean % damage 14 daa Poa annua (Poa annua; adjuvant 1.5% w/v): 0%
- mean % damage 1 daa Poa annua (Poa annua; adjuvant 2% w/v): 0%
- mean % damage 7 daa Poa annua (Poa annua; adjuvant 2% w/v): 5%
- mean % damage 14 daa Poa annua (Poa annua; adjuvant 2% w/v): 0%
- mean % damage 1 daa Poa annua (Poa annua; adjuvant 2.5% w/v): 0%
- mean % damage 7 daa Poa annua (Poa annua; adjuvant 2.5% w/v): 5%
- mean % damage 14 daa Poa annua (Poa annua; adjuvant 2.5% w/v): 0%
- mean % damage 1 daa Veronica persica (Veronica persica; adjuvant 1% w/v): 0%
- mean % damage 7 daa Veronica persica (Veronica persica; adjuvant 1% w/v): 0%
- mean % damage 14 daa Veronica persica (Veronica persica; adjuvant 1% w/v): 0%
- mean % damage 1 daa Veronica persica (Veronica persica; adjuvant 1.5% w/v): 0%
- mean % damage 7 daa Veronica persica (Veronica persica; adjuvant 1.5% w/v): 0%
- mean % damage 14 daa Veronica persica (Veronica persica; adjuvant 1.5% w/v): 0%
- mean % damage 1 daa Veronica persica (Veronica persica; adjuvant 2% w/v): 5%
- mean % damage 7 daa Veronica persica (Veronica persica; adjuvant 2% w/v): 5%
- mean % damage 14 daa Veronica persica (Veronica persica; adjuvant 2% w/v): 5%
- mean % damage 1 daa Veronica persica (Veronica persica; adjuvant 2.5% w/v): 5%
- mean % damage 7 daa Veronica persica (Veronica persica; adjuvant 2.5% w/v): 5%
- mean % damage 14 daa Veronica persica (Veronica persica; adjuvant 2.5% w/v): 5%
- mean % damage 1 daa Trifolium repens (Trifolium repens; adjuvant 1% w/v): 0%
- mean % damage 7 daa Trifolium repens (Trifolium repens; adjuvant 1% w/v): 0%
- mean % damage 14 daa Trifolium repens (Trifolium repens; adjuvant 1% w/v): 0%
- mean % damage 1 daa Trifolium repens (Trifolium repens; adjuvant 1.5% w/v): 5%
- mean % damage 7 daa Trifolium repens (Trifolium repens; adjuvant 1.5% w/v): 5%
- mean % damage 14 daa Trifolium repens (Trifolium repens; adjuvant 1.5% w/v): 0%
- mean % damage 1 daa Trifolium repens (Trifolium repens; adjuvant 2% w/v): 10%
- mean % damage 7 daa Trifolium repens (Trifolium repens; adjuvant 2% w/v): 5%
- mean % damage 14 daa Trifolium repens (Trifolium repens; adjuvant 2% w/v): 0%
- mean % damage 1 daa Trifolium repens (Trifolium repens; adjuvant 2.5% w/v): 10%
- mean % damage 7 daa Trifolium repens (Trifolium repens; adjuvant 2.5% w/v): 5%
- mean % damage 14 daa Trifolium repens (Trifolium repens; adjuvant 2.5% w/v): 10%
- mean % damage 1 daa Stellaria media (Stellaria media; adjuvant 1% w/v): 0%
- mean % damage 7 daa Stellaria media (Stellaria media; adjuvant 1% w/v): 0%
- mean % damage 14 daa Stellaria media (Stellaria media; adjuvant 1% w/v): 0%
- mean % damage 1 daa Stellaria media (Stellaria media; adjuvant 1.5% w/v): 0%
- mean % damage 7 daa Stellaria media (Stellaria media; adjuvant 1.5% w/v): 0%
- mean % damage 14 daa Stellaria media (Stellaria media; adjuvant 1.5% w/v): 0%
- mean % damage 1 daa Stellaria media (Stellaria media; adjuvant 2% w/v): 0%
- mean % damage 7 daa Stellaria media (Stellaria media; adjuvant 2% w/v): 5%
- mean % damage 14 daa Stellaria media (Stellaria media; adjuvant 2% w/v): 5%
- mean % damage 1 daa Stellaria media (Stellaria media; adjuvant 2.5% w/v): 0%
- mean % damage 7 daa Stellaria media (Stellaria media; adjuvant 2.5% w/v): 5%
- mean % damage 14 daa Stellaria media (Stellaria media; adjuvant 2.5% w/v): 0%

Substance: Oleyl alcohol polyglycol ether with 2 moles of ethoxylation [GenapolO020]
- mean % damage 1 daa Poa annua (Poa annua; adjuvant 1% w/v): 0%
- mean % damage 7 daa Poa annua (Poa annua; adjuvant 1% w/v): 0%
- mean % damage 14 daa Poa annua (Poa annua; adjuvant 1% w/v): 0%
- mean % damage 1 daa Poa annua (Poa annua; adjuvant 1.5% w/v): 0%
- mean % damage 7 daa Poa annua (Poa annua; adjuvant 1.5% w/v): 0%
- mean % damage 14 daa Poa annua (Poa annua; adjuvant 1.5% w/v): 0%
- mean % damage 1 daa Poa annua (Poa annua; adjuvant 2% w/v): 0%
- mean % damage 7 daa Poa annua (Poa annua; adjuvant 2% w/v): 0%
- mean % damage 14 daa Poa annua (Poa annua; adjuvant 2% w/v): 0%
- mean % damage 1 daa Poa annua (Poa annua; adjuvant 2.5% w/v): 0%
- mean % damage 7 daa Poa annua (Poa annua; adjuvant 2.5% w/v): 0%
- mean % damage 14 daa Poa annua (Poa annua; adjuvant 2.5% w/v): 0%
- mean % damage 1 daa Veronica persica (Veronica persica; adjuvant 1% w/v): 0%
- mean % damage 7 daa Veronica persica (Veronica persica; adjuvant 1% w/v): 0%
- mean % damage 14 daa Veronica persica (Veronica persica; adjuvant 1% w/v): 0%
- mean % damage 1 daa Veronica persica (Veronica persica; adjuvant 1.5% w/v): 0%
- mean % damage 7 daa Veronica persica (Veronica persica; adjuvant 1.5% w/v): 0%
- mean % damage 14 daa Veronica persica (Veronica persica; adjuvant 1.5% w/v): 0%
- mean % damage 1 daa Veronica persica (Veronica persica; adjuvant 2% w/v): 0%
- mean % damage 7 daa Veronica persica (Veronica persica; adjuvant 2% w/v): 0%
- mean % damage 14 daa Veronica persica (Veronica persica; adjuvant 2% w/v): 0%
- mean % damage 1 daa Veronica persica (Veronica persica; adjuvant 2.5% w/v): 0%
- mean % damage 7 daa Veronica persica (Veronica persica; adjuvant 2.5% w/v): 0%
- mean % damage 14 daa Veronica persica (Veronica persica; adjuvant 2.5% w/v): 0%
- mean % damage 1 daa Trifolium repens (Trifolium repens; adjuvant 1% w/v): 0%
- mean % damage 7 daa Trifolium repens (Trifolium repens; adjuvant 1% w/v): 0%
- mean % damage 14 daa Trifolium repens (Trifolium repens; adjuvant 1% w/v): 0%
- mean % damage 1 daa Trifolium repens (Trifolium repens; adjuvant 1.5% w/v): 0%
- mean % damage 7 daa Trifolium repens (Trifolium repens; adjuvant 1.5% w/v): 0%
- mean % damage 14 daa Trifolium repens (Trifolium repens; adjuvant 1.5% w/v): 0%
- mean % damage 1 daa Trifolium repens (Trifolium repens; adjuvant 2% w/v): 0%
- mean % damage 7 daa Trifolium repens (Trifolium repens; adjuvant 2% w/v): 0%
- mean % damage 14 daa Trifolium repens (Trifolium repens; adjuvant 2% w/v): 0%
- mean % damage 1 daa Trifolium repens (Trifolium repens; adjuvant 2.5% w/v): 0%
- mean % damage 7 daa Trifolium repens (Trifolium repens; adjuvant 2.5% w/v): 10%
- mean % damage 14 daa Trifolium repens (Trifolium repens; adjuvant 2.5% w/v): 0%
- mean % damage 1 daa Stellaria media (Stellaria media; adjuvant 1% w/v): 0%
- mean % damage 7 daa Stellaria media (Stellaria media; adjuvant 1% w/v): 0%
- mean % damage 14 daa Stellaria media (Stellaria media; adjuvant 1% w/v): 0%
- mean % damage 1 daa Stellaria media (Stellaria media; adjuvant 1.5% w/v): 0%
- mean % damage 7 daa Stellaria media (Stellaria media; adjuvant 1.5% w/v): 0%
- mean % damage 14 daa Stellaria media (Stellaria media; adjuvant 1.5% w/v): 0%
- mean % damage 1 daa Stellaria media (Stellaria media; adjuvant 2% w/v): 0%
- mean % damage 7 daa Stellaria media (Stellaria media; adjuvant 2% w/v): 0%
- mean % damage 14 daa Stellaria media (Stellaria media; adjuvant 2% w/v): 0%
- mean % damage 1 daa Stellaria media (Stellaria media; adjuvant 2.5% w/v): 0%
- mean % damage 7 daa Stellaria media (Stellaria media; adjuvant 2.5% w/v): 5%
- mean % damage 14 daa Stellaria media (Stellaria media; adjuvant 2.5% w/v): 0%

Reference: patent US20130252816A1, “HERBICIDAL COMPOSITION AND USE THEREOF” (Syngenta Crop Protection LLC, priority 2010, published 2013)
